Where no end group is shown, it is not given here. [ ]: non-standard residue; d: D form.
Legend:
[1] = tested on: cytochrome c; assay: Cytochrome c peroxidase activity (Amplex Red Peroxidase Kit); type: biochemical; settings: for reduction in cytochrome c peroxidase activity compared to cytochrome c exposed to chol-POPC liposomes only: 300 μM chol-POPC liposomes, cytochrome c incubated with peptide first, peptide concentration not stated (FIG. 2 range 0-300 μM); for effect on cholesterol-induced cytochrome c peroxidase activity (FIG. 2): peptide 0 μM to 300 μM, 300 μM cholesterol
Method: Cytochrome c peroxidase activity was measured using the Amplex Red Peroxidase Kit. Amplex Red reagent reacts with H2O2 in a 1:1 ratio in the presence of a peroxidase in order to create a highly fluorescent compound called resorufin, which has an excitation at 570 nm and an emission at 585 nm. 2 μM cytochrome c was incubated in 20 mM Hepes buffer pH 7.4 with varying concentrations of free cholesterol dissolved in ethanol or cholesterol-POPC liposomes (chol-POPC). 10 μM of H2O2 and 50 μM of Amplex Red reagent were subsequently added. The fluorescence was then measured using time course data collected from a Spectra Max 190 microplate spectrofluorometer (Molecular Devices, Sunnyvale, Calif.). Liposomes were prepared as previously described in Melzak et al., Langmuir, 24: 9172-9180 (2008). Chol-POPC liposomes were prepared in a 1:1 molar ratio. Stock solutions were mixed and then dried under nitrogen from 30 minutes. After resuspension in 20 mM Hepes buffer pH 7.4, the liposomes were extruded 25 times through a 50 nm pore membrane (Avestin).

[2] = tested on: cytochrome c; assay: Cytochrome c reduction by ascorbate (absorbance at 550 nm); type: biochemical; settings: 100 μM chol-POPC liposomes, 20 μM cytochrome c, 50 μM vitamin C; peptide up to 300 μM
Method: Liposomes were prepared as previously described in Melzak et al., Langmuir, 24: 9172-9180 (2008). Chol-POPC liposomes were prepared in a 1:1 molar ratio. Stock solutions were mixed and then dried under nitrogen from 30 minutes. After resuspension in 20 mM Hepes buffer pH 7.4, the liposomes were extruded 25 times through a 50 nm pore membrane (Avestin). 20 μM cytochrome c in Hepes buffer pH 7.4 was contacted with varying concentrations of chol-POPC liposomes and peptide. 50 μM ascorbate (vitamin C) was added after five minutes in order to promote the reduction the cytochrome c protein. The absorbance at 550 nm was then recorded in order to obtain the rate of the reaction after treatment with varying concentrations of peptide and cholesterol using a spectrophotometer (Spectramax Gemini XPS, Molecular Devices, Sunnyvale, Calif.). (See Basova et al., 2007).

[3] = tested on: cytochrome c; assay: Absorbance spectrum of cytochrome c (Soret band, 350-450 nm); settings: 100 μM peptide
Method: The effects of cholesterol and aromatic-cationic peptides on the structure of cytochrome c were analyzed using absorbance spectra (Pinherio et al., 1997). Wild-type cytochrome c typically has a peak at around 410 nm (which represents the Soret region) that may be affected by protein damage. Absorbance between 350-450 nm was analyzed using a Spectramax Gemini XPS spectrophotometer (Molecular Devices, Sunnyvale, Calif.).
Cholesterol-induced structural alterations of cytochrome c were also analyzed using absorption spectroscopy. The absorbance spectrum between 350 and 450 nm was analyzed so as to monitor changes to the Soret band. A Soret band with a maximum intensity at 410 nm is indicative of the presence of both axial ligands (His18 and Met80 ligated to heme iron). (Pinherio et al., 1997).

[4] = tested on: cytochrome c; assay: Circular dichroism spectroscopy of cytochrome c (Soret region); settings: 100 μM peptide; 40 μM chol-POPC liposomes; 10 mM cytochrome c
Method: The circular dichroism (CD) spectra was collected using an AVIA 62 DS spectrophotometer. The CD spectra was analyzed between 375-450 nm in order to monitor the Soret region using a CD 10-mm path-length for cells containing 20 mM Hepes (pH 7.4) and […] cytochrome c in the presence or absence of 40 μM chol-POPC liposomes and/or 100 μM SS-31.
Circular dichroism (Olis DSM20 spectropolarimeter) was carried out to analyze Soret region (375-450 nm), a probe for the attachment of the Met80 residue to the heme iron. The decreased intensity of the 416 nm Cotton effect (negative Cotton peak) is indicative of a perturbed heme pocket region, as the 416 nm dichroic band serves as a readout for the Met80-Fe(III) coordination in native cytochrome c. (Santucci et al., 1997). […] The CD spectra data comports with the findings of Examples 1 and 3 because the disruption of the Fe-Met80 coordination increases the exposure of the heme Fe to H2O2, thereby causing cytochrome c to switch from an electron carrier to a peroxidase.

increase in cytochrome c peroxidase activity ([1]; 300 μM, 2 μM cytochrome c, 10 μM H2O2, 50 μM Amplex Red) [fold] | Molecule | reduction in cytochrome c peroxidase activity compared to cytochrome c exposed to chol-POPC liposomes only [1] [%] | effect on cholesterol-induced cytochrome c peroxidase activity (FIG. 2) ([1]; 2 μM cytochrome c) | effect on cholesterol-induced impairment of cytochrome c reduction (FIG. 3B) [2] | intensity of the 410 nm absorbance peak of cytochrome c incubated with chol-POPC liposomes [3] | negative Cotton peak of cytochrome c incubated with chol-POPC liposomes (CD spectra) [4]
40 | CC(C)CCC[C@@H](C)[C@H]1CC[C@H]2[C@@H]3CC=C4C[C@@H](O)CC[C@]4(C)[C@H]3CC[C@]12C [cholesterol] | – | – | – | – | –
– | F[dR]FK-NH2 [SS-20] | 77 | inhibit cholesterol-induced cytochrome c peroxidase activity in a dose-dependent manner | reversed | – | –
– | D-Arg-2′,6′-Dmt-Lys-Phe-NH2 [SS-31] | 75 | inhibit cholesterol-induced cytochrome c peroxidase activity in a dose-dependent manner | reversed | increases the intensity of the 410 nm peak | restores the negative Cotton peak
